Data as given in the NIST ThermoML archive (doi:10.1016/j.fluid.2018.05.032).
Several values for one entry are separate records, joined by “and”; a condition that tells them apart may be missing. Equal entries are not always repeated.

Experiments:
[1] = for vapor or sublimation pressure: Closed cell (Static) method; for Normal melting temperature: DTA
[2] = Molar enthalpy of transition or fusion; details: Crystal; DSC
[3] = molar heat capacity at constant pressure; details: 101.33 kPa, DSC

CCNCCO [2-(ethylamino)ethanol]
Details | molar heat capacity at constant pressure [J/K/mol] | vapor or sublimation pressure
[1], 238.05 K, Crystal | – | 5e-05 kPa and 4.9e-05 kPa and 4.8e-05 kPa
[1], 243.07 K, Crystal | – | 0.000113 kPa and 0.000112 kPa
[1], 243.07 K, Metastable liquid | – | 0.000222 kPa and 0.000223 kPa and 0.000221 kPa
[1], 248.11 K, Metastable liquid | – | 0.000424 kPa and 0.000423 kPa
[1], 248.13 K, Crystal | – | 0.000251 kPa and 0.000252 kPa
[1], 248.14 K, Crystal | – | 0.000253 kPa
[1], 253.13 K, Crystal | – | 0.000545 kPa and 0.000544 kPa and 0.000546 kPa
[1], 253.13 K, Metastable liquid | – | 0.000783 kPa and 0.000784 kPa and 0.000781 kPa
[1], 258.13 K, Crystal | – | 0.001146 kPa
[1], 258.13 K, Metastable liquid | – | 0.001403 kPa and 0.001401 kPa
[1], 258.14 K, Crystal | – | 0.001142 kPa and 0.001139 kPa
[1], 258.14 K, Metastable liquid | – | 0.001403 kPa
[1], 263.13 K, Metastable liquid | – | 0.002453 kPa
[1], 263.14 K, Crystal | – | 0.002334 kPa and 0.002326 kPa and 0.00232 kPa
[1], 263.14 K, Metastable liquid | – | 0.002454 kPa
[1], 268.14 K, Liquid | – | 0.004201 kPa and 0.004205 kPa and 0.004206 kPa
[1], 273.14 K, Liquid | – | 0.007045 kPa and 0.007039 kPa and 0.007052 kPa
[1], 278.14 K, Liquid | – | 0.01158 kPa
[1], 283.14 K, Liquid | – | 0.01862 kPa and 0.01863 kPa
[1], 288.14 K, Liquid | – | 0.02935 kPa and 0.02936 kPa and 0.02934 kPa
[1], 293.13 K, Liquid | – | 0.04545 kPa and 0.04543 kPa
[1], 298.14 K, Liquid | – | 0.06913 kPa and 0.06915 kPa
[1], 303.13 K, Liquid | – | 0.1034 kPa
[1], 303.14 K, Liquid | – | 0.1035 kPa
[1], 308.14 K, Liquid | – | 0.1525 kPa
[3], 265 K, Liquid | 215.4 | –
[3], 270 K, Liquid | 217.1 | –
[3], 275 K, Liquid | 218.8 | –
[3], 280 K, Liquid | 220.3 | –
[3], 285 K, Liquid | 222 | –
[3], 290 K, Liquid | 223.6 | –
[3], 295 K, Liquid | 225.5 | –
[3], 300 K, Liquid | 227.7 | –
[3], 305 K, Liquid | 229.9 | –
[3], 310 K, Liquid | 232.1 | –
[3], 315 K, Liquid | 234.6 | –
[3], 320 K, Liquid | 237 | –
[3], 325 K, Liquid | 239.5 | –
[3], 330 K, Liquid | 242 | –
[3], 335 K, Liquid | 244.4 | –
[3], 340 K, Liquid | 247 | –
[3], 345 K, Liquid | 249.9 | –
[3], 350 K, Liquid | 252.9 | –
[3], 355 K, Liquid | 255.9 | –

Details | Normal melting temperature [°C]
[1], Crystal | -9.2

Details | Molar enthalpy of transition or fusion [kJ/mol]
[2] | 16.5

CC(C)NCCO [2-isopropylaminoethanol]
Details | molar heat capacity at constant pressure [J/K/mol] | vapor or sublimation pressure
[1], 248.13 K, Metastable liquid | – | 0.000252 kPa and 0.000251 kPa
[1], 253.14 K, Metastable liquid | – | 0.000472 kPa
[1], 253.15 K, Crystal | – | 0.000258 kPa and 0.000257 kPa and 0.000254 kPa
[1], 253.15 K, Metastable liquid | – | 0.000471 kPa and 0.000472 kPa
[1], 258.14 K, Crystal | – | 0.000482 kPa and 0.00048 kPa and 0.000479 kPa
[1], 258.15 K, Metastable liquid | – | 0.000864 kPa
[1], 263.15 K, Crystal | – | 0.000926 kPa and 0.000923 kPa and 0.000921 kPa
[1], 263.15 K, Metastable liquid | – | 0.001546 kPa and 0.001544 kPa
[1], 268.14 K, Crystal | – | 0.00171 kPa and 0.001709 kPa
[1], 268.14 K, Metastable liquid | – | 0.002688 kPa
[1], 273.14 K, Crystal | – | 0.00318 kPa and 0.003182 kPa and 0.003174 kPa
[1], 273.14 K, Metastable liquid | – | 0.004591 kPa
[1], 273.15 K, Metastable liquid | – | 0.004589 kPa and 0.00459 kPa
[1], 278.14 K, Crystal | – | 0.005875 kPa and 0.005872 kPa and 0.00587 kPa
[1], 278.14 K, Metastable liquid | – | 0.007669 kPa and 0.007676 kPa and 0.007665 kPa
[1], 283.14 K, Crystal | – | 0.01065 kPa and 0.01066 kPa and 0.01068 kPa
[1], 283.14 K, Metastable liquid | – | 0.01257 kPa
[1], 288.14 K, Crystal | – | 0.01909 kPa and 0.01911 kPa
[1], 288.15 K, Crystal | – | 0.0191 kPa
[1], 288.15 K, Metastable liquid | – | 0.0202 kPa
[1], 293.14 K, Liquid | – | 0.03179 kPa
[1], 298.11 K, Liquid | – | 0.04899 kPa
[1], 298.12 K, Liquid | – | 0.0492 kPa
[1], 298.14 K, Liquid | – | 0.04914 kPa and 0.04915 kPa
[1], 298.17 K, Liquid | – | 0.04928 kPa
[1], 303.04 K, Liquid | – | 0.07439 kPa and 0.0744 kPa and 0.07435 kPa
[1], 303.14 K, Liquid | – | 0.0747 kPa and 0.07469 kPa and 0.07473 kPa
[1], 308.01 K, Liquid | – | 0.1111 kPa
[1], 308.03 K, Liquid | – | 0.1112 kPa
[1], 308.04 K, Liquid | – | 0.1112 kPa
[1], 308.14 K, Liquid | – | 0.1119 kPa
[1], 308.15 K, Liquid | – | 0.1119 kPa and 0.1118 kPa
[1], 313 K, Liquid | – | 0.164 kPa
[1], 313.01 K, Liquid | – | 0.1642 kPa
[1], 317.9 K, Liquid | – | 0.2372 kPa and 0.2373 kPa
[1], 322.97 K, Liquid | – | 0.3405 kPa
[1], 322.98 K, Liquid | – | 0.3407 kPa
[1], 327.95 K, Liquid | – | 0.4814 kPa and 0.4815 kPa
[1], 332.99 K, Liquid | – | 0.6731 kPa and 0.6728 kPa
[1], 337.93 K, Liquid | – | 0.9221 kPa and 0.9223 kPa
[1], 342.94 K, Liquid | – | 1.257 kPa
[3], 265 K, Metastable liquid | 240.4 | –
[3], 270 K, Metastable liquid | 243.1 | –
[3], 275 K, Metastable liquid | 245.8 | –
[3], 280 K, Metastable liquid | 248.5 | –
[3], 285 K, Metastable liquid | 251 | –
[3], 290 K, Liquid | 253.8 | –
[3], 295 K, Liquid | 256.9 | –
[3], 300 K, Liquid | 260.1 | –
[3], 305 K, Liquid | 263.3 | –
[3], 310 K, Liquid | 266.6 | –
[3], 315 K, Liquid | 270.1 | –
[3], 320 K, Liquid | 273.5 | –
[3], 325 K, Liquid | 277.2 | –
[3], 330 K, Liquid | 280.7 | –
[3], 335 K, Liquid | 284.3 | –
[3], 340 K, Liquid | 287.7 | –
[3], 345 K, Liquid | 291.1 | –
[3], 350 K, Liquid | 294.9 | –
[3], 355 K, Liquid | 298.5 | –

Details | Normal melting temperature [°C]
[1], Crystal | 16

Details | Molar enthalpy of transition or fusion [kJ/mol]
[2] | 19

CCN(CC)CCO [(diethylamino)ethanol]
Liquid
Details | molar heat capacity at constant pressure [J/K/mol] | vapor or sublimation pressure
[1], 273.64 K | – | 0.03488 kPa and 0.0349 kPa and 0.03489 kPa
[1], 278.14 K | – | 0.05131 kPa and 0.05133 kPa
[1], 278.15 K | – | 0.05134 kPa
[1], 283.14 K | – | 0.07733 kPa
[1], 283.15 K | – | 0.07737 kPa
[1], 288.15 K | – | 0.1146 kPa
[1], 293.14 K | – | 0.167 kPa and 0.1669 kPa
[1], 298.15 K | – | 0.2393 kPa
[1], 303.14 K | – | 0.3378 kPa and 0.3379 kPa
[1], 303.15 K | – | 0.338 kPa
[1], 308.15 K | – | 0.4708 kPa and 0.4709 kPa
[3], 265 K | 260.6 | –
[3], 270 K | 263.9 | –
[3], 275 K | 267.1 | –
[3], 280 K | 270 | –
[3], 285 K | 272.8 | –
[3], 290 K | 275.6 | –
[3], 295 K | 278.7 | –
[3], 300 K | 281.8 | –
[3], 305 K | 284.7 | –
[3], 310 K | 287.6 | –
[3], 315 K | 290.5 | –
[3], 320 K | 293.2 | –
[3], 325 K | 295.8 | –
[3], 330 K | 298.2 | –
[3], 335 K | 300.4 | –
[3], 340 K | 302.7 | –
[3], 345 K | 305.1 | –
[3], 350 K | 307.7 | –
[3], 355 K | 309.9 | –
